In patent US20260022142A1, “MACROCYCLIC IMMUNOMODULATORS” (Bristol-Myers Squibb Company, priority 2022, published 2026) one finds IC50 data, which are given here for five compounds.

Bridge positions count the residues as written; N and C are the ends. Square brackets hold non-standard residues; d marks the D form. Peptide text beside a SMILES is read from it. * marks the point of attachment. ξ: configuration not given here. Bip = N[C@@H](Cc1ccc(-c2ccccc2)cc1)C(=O)O; Phe(3-Me) = Cc1cccc(C[C@H](N)C(=O)O)c1; Val(3-OH) = CC(C)(O)[C@H](N)C(=O)O; Cha = N[C@@H](CC1CCCCC1)C(=O)O; Cit = NC(=O)NCCC[C@H](N)C(=O)O; Thr(3ξ) = CC(O)[C@H](N)C(=O)O; Carboxymethyl = O=C(O)C*; Orn = NCCC[C@H](N)C(=O)O; Aun = NCCCCCCCCCCC(=O)O; Dab = NCC[C@H](N)C(=O)O; Piv = CC(C)(C)C(=O)*

T1 sequence (Q15116 25-288): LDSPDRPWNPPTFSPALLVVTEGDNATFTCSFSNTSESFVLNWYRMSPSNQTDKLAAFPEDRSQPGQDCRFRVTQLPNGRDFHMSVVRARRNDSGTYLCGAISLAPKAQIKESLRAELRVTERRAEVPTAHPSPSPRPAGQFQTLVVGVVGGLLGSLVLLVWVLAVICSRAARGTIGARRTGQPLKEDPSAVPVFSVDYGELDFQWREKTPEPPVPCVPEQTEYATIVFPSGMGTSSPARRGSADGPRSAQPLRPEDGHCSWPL

This assay has as its target T1, PD-1/PD-L1 interaction (PE-labeled human PD-L1-Ig binding to Jurkat cell line over-expressing human PD-1) (Homo sapiens, UniProt Q15116).
T1 construct: expressed in transfected cells; host or cells: Jurkat
Kind of assay: Jurkat-PD-1 Cell Binding High-Content Screening Assay (CBA). The assay is classed as cell-based. To be noted: Jurkat cell line over-expressing human PD-1; PE-labeled PD-L1-Ig 20 nM final; read-out: Jurkat hPD1-PDL1 IC50. A digest of the protocol: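 Human PD-L1-Ig carrying a covalent PE label on its Ig tag serves as the probe, applied at 20 nM final to compound-treated (2 h, 37° C) Jurkat-hPD-1 cells in medium with 10% fetal calf serum. After one hour, fixation and nuclear staining precede high-content image analysis.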
In the case of `Cc1cccc(C[C@@H]2NC(=O)[C@H](CC(=O)O)NC(=O)[C@H](Cc3ccc(OCC(=O)O)cc3)NC(=O)[C@H](CCNC(=O)C(C)(C)C)NC(=O)CSC[C@@H](C(=O)N[C@@H](CCN)C(=O)NCCCCCCCCCCC(=O)O)NC(=O)[C@H](C(C)O)NC(=O)[C@H](C(C)C)NC(=O)[C@H](CC3CCCCC3)NC(=O)[C@H](CCN)NC(=O)[C@@H](CC(C)C)NC(=O)[C@H](CCCN)NC(=O)[C@H](CCCNC(N)=O)NC(=O)[C@H](Cc3ccc(-c4ccccc4)cc3)NC(=O)[C@H](C(C)C)NC2=O)c1` (stereo partly drawn) [Compound 3511] ({CH2CO}-[Dab](Piv)Y(Carboxymethyl)D[Phe(3-Me)]V[Bip][Cit][Orn][dL][Dab][Cha]V[Thr(3ξ)]C[Dab][Aun]-OH; thioether N-14), the IC50 is 21.7 nM.
With `Cc1cccc(C[C@@H]2NC(=O)[C@H](CC(=O)O)NC(=O)[C@H](Cc3ccc(OCC(=O)O)cc3)NC(=O)[C@H](CCCNC(=N)N)NC(=O)CSC[C@@H](C(=O)N[C@@H](CCN)C(=O)NCCCCCCCCCCC(=O)O)NC(=O)[C@H](C(C)O)NC(=O)[C@H](C(C)(C)O)NC(=O)[C@H](CC3CCCCC3)NC(=O)[C@H](CCN)NC(=O)[C@@H](CC(C)C)NC(=O)[C@H](CCCN)NC(=O)[C@H](CCCNC(N)=O)NC(=O)[C@H](Cc3ccc(-c4ccccc4)cc3)NC(=O)[C@H](C(C)C)NC2=O)c1` (stereo partly drawn) [Compound 3512] ({CH2CO}-RY(Carboxymethyl)D[Phe(3-Me)]V[Bip][Cit][Orn][dL][Dab][Cha][Val(3-OH)][Thr(3ξ)]C[Dab][Aun]-OH; thioether N-14), the IC50 is 18.2 nM.
In the case of `Cc1cccc(C[C@@H]2NC(=O)[C@H](CC(=O)O)NC(=O)[C@H](Cc3ccc(OCC(=O)O)cc3)NC(=O)[C@H](CCCNC(=N)N)NC(=O)CSC[C@@H](C(=O)N[C@@H](CCN)C(=O)NCCCCCCCCCCC(=O)O)NC(=O)[C@H](C(C)O)NC(=O)[C@H](C(C)(C)O)NC(=O)[C@H](CC3CCCCC3)NC(=O)[C@H](CCN)NC(=O)[C@@H](CC(C)C)NC(=O)[C@H](CCCN)NC(=O)[C@H](Cc3ccc(OCC(=O)O)cc3)NC(=O)[C@H](Cc3ccc(-c4ccccc4)cc3)NC(=O)[C@H](Cc3ccc(OCC(=O)O)cc3)NC2=O)c1` (stereo partly drawn) [Compound 3513] ({CH2CO}-RY(Carboxymethyl)D[Phe(3-Me)]Y(Carboxymethyl)[Bip]Y(Carboxymethyl)[Orn][dL][Dab][Cha][Val(3-OH)][Thr(3ξ)]C[Dab][Aun]-OH; thioether N-14), the IC50 worked out at 10.8 nM.
On to `Cc1cccc(C[C@@H]2NC(=O)[C@H](CC(=O)O)NC(=O)[C@H](Cc3ccc(OCC(=O)O)cc3)NC(=O)[C@H](CCCNC(=N)N)NC(=O)CSC[C@@H](C(=O)N[C@H](CC(N)=O)C(=O)NCCCCCCCCCCC(=O)O)NC(=O)[C@H](C(C)O)NC(=O)[C@H](CO)NC(=O)[C@H](CC3CCCCC3)NC(=O)[C@H](CCN)NC(=O)[C@@H](CC(C)C)NC(=O)[C@H](CCCN)NC(=O)[C@H](Cc3ccc(OCC(=O)O)cc3)NC(=O)[C@H](Cc3ccc(-c4ccccc4)cc3)NC(=O)[C@H](Cc3ccc(OCC(=O)O)cc3)NC2=O)c1` (stereo partly drawn) [Compound 3515] ({CH2CO}-RY(Carboxymethyl)D[Phe(3-Me)]Y(Carboxymethyl)[Bip]Y(Carboxymethyl)[Orn][dL][Dab][Cha]S[Thr(3ξ)]C[dN][Aun]-OH; thioether N-14), for which the IC50 amounted to 169 nM.
In the case of `Cc1cccc(C[C@@H]2NC(=O)[C@H](CC(=O)O)NC(=O)[C@H](Cc3ccc(OCC(=O)O)cc3)NC(=O)[C@H](CCCNC(=N)N)NC(=O)CSC[C@@H](C(=O)N[C@@H](CCN)C(=O)NCCCCCCCCCCC(=O)O)NC(=O)[C@H](CCC(N)=O)NC(=O)[C@H](CO)NC(=O)[C@H](CC3CCCCC3)NC(=O)[C@H](CCN)NC(=O)[C@@H](CC(C)C)NC(=O)[C@H](CCCN)NC(=O)[C@H](Cc3ccc(OCC(=O)O)cc3)NC(=O)[C@H](Cc3ccc(-c4ccccc4)cc3)NC(=O)[C@H](Cc3ccc(OCC(=O)O)cc3)NC2=O)c1` [Compound 3516] ({CH2CO}-RY(Carboxymethyl)D[Phe(3-Me)]Y(Carboxymethyl)[Bip]Y(Carboxymethyl)[Orn][dL][Dab][Cha]SQC[Dab][Aun]-OH; thioether N-14), the IC50 was 10.3 nM.
